# Laboratory results taken from patent US4705805A, “Antithrombotic agent” (priority 1978, dated 1987).
# Read-outs that look alike come from different tables or passages of the source.
# Columns and labels:
# [1] = tested on: human platelet rich plasma, collagen-induced aggregation; test: inhibition of platelet aggregation in human platelet rich plasma, induced by collagen; type: cell-based; conditions: read-out: percentage inhibition, collagen; for inhibition at 10 µg/mL: 10 μg/ml
# Procedure: (§1) In this test, 9 vol. of blood is sampled from the carotid artery of rabbits (2 to 2.5 Kg) and placed in a silicon-coated flask containing 1 vol. of 3.8% sodium citrate. The thus obtained blood is centrifuged at 1,000 rpm for 15 minutes to obtain platelet rich plasma (referred to as "PRP" hereinafter). The aggregation of blood platelets is observed using an aggregometer (made by Bryston Co.) and the degree of aggregation after the addition of aggregation promoting substances is measured by nephelometry, i.e., through increase in light transmission.
# (§2) The PRP (0.9 ml) is placed in a silicon-coated cuvett of the aggregometer. Then, 0.05 ml of physiological saline solution containing various concentrations of test reagents or control reagents is added and the mixture is allowed to stand for one minute. Compounds promoting aggregation are then added and the absorbancy of the solution is measured and the percent inhibition of aggregation is calculated according to the following equation: [formula] C: Transmittancy showing the maximum percent aggregation by physiological saline solution
# (§3) D: Transmittancy showing the maximum percent aggregation by sample
# (§4) In this example, the same procedures are repeated as in Example 10 except that human platelet rich plasma is used in place of rabbit platelet rich plasma.
# [2] = tested on: rabbit blood platelets (platelet rich plasma), thrombin-induced aggregation; test: inhibition of platelet aggregation in rabbit platelet rich plasma (in vitro), induced by thrombin; type: cell-based; conditions: Oryctolagus cuniculus, read-out: percentage of inhibition, thrombin; for inhibition at 3 µg/mL: 3 μg/ml; for inhibition at 10 µg/mL: 10 μg/ml
# Procedure: (§5) In this example, the inhibition of platelet aggregation in rabbit platelet rich plasma (in vitro) is tested.
# as §1, with “The” for “In this test, 9 vol. of blood is sampled from the carotid artery of rabbits (2 to 2.5 Kg) and placed in a silicon-coated flask containing 1 vol. of 3.8% sodium citrate. The”
# as §2, §3
# (§6) Test for the inhibition of platelet aggregation induced by ADP, collagen and thrombin.
# [3] = tested on: mice (male dd-strain), death by sodium arachidonate; test: prevention of death of mice by sodium arachidonate; type: in vivo; conditions: sodium arachidonate 50 mg/Kg i.v. two hours thereafter
# Procedure: When a large amount of arachidonic acid is intravenously administrated to a mouse, blood platelet aggregates are formed and caught by the microvasculature system of the lung. As a result, the mouse expires due to dyspnea.
# To examine the effect of a medicine in vivo, the medicine is orally administered to test animals and thereafter arachidonic acid is administered.
# In this example, the test was carried out according to the method by Uzunova A. D. et al. [Prostaglandins 13, p. 995 (1977)] Specifically, a CMC suspension consisting of 0.3% CMC solution and a medicine (test compound and reference medicine) was orally administered to mice (male dd-strain, 22-24 g). Two hours thereafter, 50 mg/Kg of sodium arachidonate was intravenously administered to the mice.
# [4] = tested on: rabbit blood platelets (platelet rich plasma), collagen-induced aggregation; test: inhibition of platelet aggregation in rabbit platelet rich plasma (in vitro), induced by collagen; type: cell-based; conditions: Oryctolagus cuniculus, Platelet; for inhibition at 1 µg/mL: 1 μg/ml; for inhibition at 3 µg/mL: 3 μg/ml; for inhibition at 10 µg/mL: 10 μg/ml
# Procedure: as §5, §1, §2, §3, §6
# [5] = tested on: human platelet rich plasma, ADP-induced aggregation; test: inhibition of platelet aggregation in human platelet rich plasma, induced by ADP; type: cell-based; conditions: read-out: percentage inhibition, ADP; for inhibition at 10 µg/mL: 10 μg/ml
# Procedure: as §1, §2, §3, §4
# [6] = tested on: mice, death by ADP injection; test: prevention of death of mice by ADP addition (in vivo), intravenous administration; conditions: 10 mg/Kg, ADP-Na ten minutes thereafter
# Procedure: (§7) In this example, prevention of death of mice by ADP addition (in vivo) is tested. It is shown that intravenous administration of a great amount of ADP to mice causes aggregated blood platelets to be captured in the pulmonary capillaries so that the mice die of respiratory distress.
# In order to check the effect by intravenous administration, physiological saline solution and physiological saline solution containing the test reagents (0.5 mg/ml) is injected into the tail vein in a volume of 0.2 ml/10 g (body weight). Ten minutes thereafter (10 mg/kg) ADP-Na is injected into the tail vein as in the oral test, and the mortality is calculated.
# [7] = tested on: mice, death by ADP injection; test: prevention of death of mice by ADP addition (in vivo), oral administration; conditions: for Mortality / Score (mortality): oral, 100 mg/Kg, ADP i.v. after one hour
# Procedure: as §7
# The test is carried out according to Roba's method. [Eur. J. Pharmacol. 37, 265-274 (1976)]. Specifically, CMC solution (0.3%) and CMC suspension containing the test compound and control compounds are orally administered to mice in a ratio of 0.1 ml/10 g (body weight). After one hour, an aqueous solution of ADP (60 mg/ml) is injected into the tail vein in a volume of 0.1 ml/10 g (body weight) every 10 seconds and the mortality is calculated.
# [8] = tested on: rabbit blood platelets (platelet rich plasma), ADP-induced aggregation; test: inhibition of platelet aggregation in rabbit platelet rich plasma (in vitro), induced by ADP; type: cell-based; conditions: Oryctolagus cuniculus, Platelet; for IC50 / inhibition at 1 µg/mL / inhibition at 3 µg/mL / inhibition at 10 µg/mL / inhibition at 30 µg/mL: rabbit PRP, ADP 10^-5 M; for inhibition at 1 µg/mL: 1 μg/ml; for inhibition at 3 µg/mL: 3 μg/ml; for inhibition at 10 µg/mL: 10 μg/ml; for inhibition at 30 µg/mL: 30 μg/ml
# Procedure: as §5, §1, §2, §3, §6
# [9] = tested on: mouse (male dd-strain); test: acute toxicity, Behrens-Karber's method; type: in vivo; conditions: oral
# Procedure: (§8) In this example, the acute toxicity of compounds of the invention is determined by Behrens-Karber's method using, 5 male dd-strain for each group weighing 20±1 g. A 0.3% CMC suspension of the test compound (concentration of the test compound: 100 mg/ml) is then orally administered to each mouse.
# [10] = acute toxicity, Behrens-Karber's method; type: in vivo; conditions: in vivo; mouse, oral
# Procedure: as §8
# [11] = solubility; type: physicochemical; conditions: for Solubility in ether, benzene, chloroform: chloroform, and the like
# [12] = read-out: percentage of inhibition, collagen
# [13] = read-out: percentage of inhibition, ADP
# [14] = rabbit PRP, read-out: percentage of inhibition, collagen
# [15] = rabbit PRP, 30 μg/ml, read-out: percentage of inhibition, collagen
SMILES,Mortality ([3]; oral 25 mg/Kg) [%],Score (mortality) ([3]; oral 25 mg/Kg),Mortality [6] [%],Score (mortality) [6],Mortality [7] [%],Score (mortality) [7],inhibition at 10 µg/mL ([1]; human PRP) [%],"inhibition at 30 µg/mL ([1]; human PRP, 30 μg/ml) [%]","inhibition at 100 µg/mL ([1]; human PRP, 100 μg/ml) [%]",Mortality ([3]; oral 50 mg/Kg) [%],"inhibition at 3 µg/mL [4, 14] [%]","inhibition at 10 µg/mL [4, 14] [%]",LD50 [10] [mg/kg],inhibition at 10 µg/mL ([5]; human PRP) [%],"inhibition at 30 µg/mL ([5]; human PRP, 30 μg/ml) [%]","inhibition at 100 µg/mL ([5]; human PRP, 100 μg/ml) [%]",IC50 [8] [mg/L],"inhibition at 3 µg/mL [8, 13] [%]","inhibition at 10 µg/mL [8, 13] [%]","inhibition at 30 µg/mL [8, 13] [%]",other results
"CC(=O)Oc1ccccc1C(=O)O [Aspirin, reference compound]",10,1/10,70,7/10,80,8/10,–,–,–,–,–,–,–,–,–,–,–,–,–,–,"inhibition at 30 µg/mL ([1]; Homo sapiens): 48%; inhibition at 100 µg/mL ([1]; Homo sapiens): 86%; inhibition at 30 µg/mL [2]: 21%; inhibition at 100 µg/mL [2]: 65%; Mortality ([3]; oral 12.5 mg/Kg): 50%; Score (mortality) ([3]; oral 12.5 mg/Kg): 5/10; inhibition at 30 µg/mL [4, 12]: 20%; inhibition at 100 µg/mL [4, 12]: 34%; inhibition at 300 µg/mL [4, 12]: 48%; inhibition at 30 µg/mL ([5]; Homo sapiens): 7%; inhibition at 100 µg/mL ([5]; Homo sapiens): 20%; effect in reducing mortality (ADP) ([7]; in words, oral or intravenous administration, Table 3): ineffective; inhibition at 300 µg/mL [8, 13]: 0%"
"O=C(NCCO)c1ccccc1SSc1ccccc1C(=O)NCCO [Compound III, 2,2'-dithiobis(N-2-hydroxyethylbenzamide)]",–,–,–,–,20,2/10,20,66,100,70,88.5,100,≥ 2000,15,43,98,4.8,33.4,69.1,100,"Score (mortality) ([3]; oral 50 mg/Kg): 7/10; Mortality ([3]; oral 100 mg/Kg): 40%; Score (mortality) ([3]; oral 100 mg/Kg): 4/20; IC50 ([4]; rabbit PRP): 1.1 mg/L; inhibition at 0.3 µg/mL ([4]; rabbit PRP, 0.3 μg/ml, read-out: percentage of inhibition, collagen): 11%; inhibition at 1 µg/mL [4, 14]: 39.2%; mortality rate ([9]; 1 g/Kg): 0/5; mortality rate ([9]; 2 g/Kg): 1/5; mortality rate ([9]; 3 g/Kg): 4/5; mortality rate ([9]; 4 g/Kg): 4/5; inhibition at 1 µg/mL [8, 13]: 21.3%"
"O=C(c1ccccc1SSc1ccccc1C(=O)N1CCN(Cc2ccccc2)CC1)N1CCN(Cc2ccccc2)CC1 [Compound IV, 2,2'-dithiobis(N'-benzylbenzpiperazide)]",–,–,50,5/10,30,3/10,–,12,75,–,7.6,46.5,≥ 4000,–,0,58,9.8,28,44.7,83.3,"inhibition at 3 µg/mL ([2]; rabbit PRP): 31%; inhibition at 10 µg/mL ([2]; rabbit PRP): 58%; inhibition at 30 µg/mL ([2]; rabbit PRP, 30 μg/ml): 84%; Solubility in ether, benzene, chloroform [11]: Insoluble; Solubility in methanol, ethanol ([11]; methanol, ethanol, and the like): slightly soluble; Solubility in water ([11]; water, etc.): Readily soluble; IC50 ([4]; rabbit PRP): 9.8 mg/L; inhibition at 30 µg/mL [4, 15]: 100%"
"CC(O)CNC(=O)c1ccccc1SSc1ccccc1C(=O)NCC(C)O (stereo not drawn) [Compound V, 2,2'-dithiobis(N-2-hydroxypropylbenzamide)]",40,8/20,–,–,–,–,39,100,–,20,83.5,100,≥ 3000,61,81,–,7.4,25.5,54,90,"inhibition at 3 µg/mL ([1]; human PRP, 3 μg/ml): 13%; inhibition at 1 µg/mL ([2]; rabbit PRP, 1 μg/ml): 10%; inhibition at 3 µg/mL ([2]; rabbit PRP): 57%; inhibition at 10 µg/mL ([2]; rabbit PRP): 89.6%; inhibition at 30 µg/mL ([2]; rabbit PRP, 30 μg/ml): 95%; Score (mortality) ([3]; oral 50 mg/Kg): 4/20; Mortality ([3]; oral 100 mg/Kg): 20%; Score (mortality) ([3]; oral 100 mg/Kg): 4/20; inhibition at 1 µg/mL [4, 14]: 25.7%; mortality rate ([9]; 2 g/Kg): 0/5; mortality rate ([9]; 3 g/Kg): 2/5; mortality rate ([9]; 4 g/Kg): 4/5; inhibition at 3 µg/mL ([5]; human PRP, 3 μg/ml): 47%; inhibition at 1 µg/mL [8, 13]: 12.5%"
"O=C(NCO)c1ccccc1SSc1ccccc1C(=O)NCO [Compound XV, 2,2'-dithiobis(N-hydroxymethylbenzamide)]",–,–,–,–,–,–,29,68,100,–,22,56,–,5,45,90,–,–,0,46,"Solubility in DMSO, DMF ([11]; DMSO, DMF, etc.): Soluble; Solubility in ethanol, water ([11]; ethanol, water, and the like): poorly soluble; Solubility in ether, benzene, chloroform [11]: Insoluble; inhibition at 30 µg/mL [4, 15]: 100%"
